Measured values published in patent US9695155B2, “Herbicidal substituted pyrimidinyloxy benzene compounds” (E. I. DU PONT DE NEMOURS AND COMPANY, priority 2013, dated 2017).

Experiments:
[1] = system: wheat; assay: Test A postemergence; assay type: in vivo, Triticum aestivum
From the text: (§1) Seeds of plant species selected from barnyardgrass (Echinochloa crus-galli), kochia (Kochia scoparia), ragweed (common ragweed, Ambrosia elatior), Italian ryegrass (Lolium multiflorum), large (Lg) crabgrass (Digitaria sanguinalis), giant foxtail (Setaria faberii), morningglory (Ipomoea spp.), pigweed (Amaranthus retroflexus), velvetleaf (Abutilon theophrasti), wheat (Triticum aestivum), and corn (Zea mays) were planted into a blend of loam soil and sand and treated preemergence with a directed soil spray using test chemicals formulated in a non-phytotoxic solvent mixture which included a surfactant.
(§2) At the same time, plants selected from these crop and weed species and also blackgrass (Alopecurus myosuroides), and galium (catchweed bedstraw, Galium aparine) were planted in pots containing the same blend of loam soil and sand and treated with postemergence applications of test chemicals formulated in the same manner. Plants ranged in height from 2 to 10 cm and were in the one- to two-leaf stage for the postemergence treatment. Treated plants and untreated controls were maintained in a greenhouse for approximately 10 days, after which time all treated plants were compared to untreated controls and visually evaluated for injury. Plant response ratings, summarized in Table A, are based on a 0 to 100 scale where 0 is no effect and 100 is complete control. A dash (-) response means no test result.

[2] = system: velvetleaf; assay: Test A postemergence; assay type: in vivo, Abutilon theophrasti
From the text: as §1, §2

[3] = system: pigweed; assay: Test A preemergence; assay type: in vivo, Amaranthus retroflexus; settings: for Pigweed plant response rating: 0 to 100 scale, 0 no effect, 100 complete control, approx. 10 days; for Plant response rating, Pigweed: 125 g ai/ha, 0 to 100 scale where 0 is no effect and 100 is complete control
From the text: as §1, §2

[4] = system: velvetleaf; assay: Test A preemergence; assay type: in vivo, Abutilon theophrasti; settings: for Velvetleaf plant response rating: 0 to 100 scale, 0 no effect, 100 complete control, approx. 10 days; for Plant response rating, Velvetleaf: 125 g ai/ha, 0 to 100 scale where 0 is no effect and 100 is complete control
From the text: as §1, §2

[5] = system: large (Lg) crabgrass; assay: Test A postemergence; assay type: in vivo, Digitaria sanguinalis
From the text: as §1, §2

[6] = system: giant foxtail; assay: Test A postemergence; assay type: in vivo, Setaria faberii
From the text: as §1, §2

[7] = system: corn; assay: Test A preemergence; assay type: in vivo, Zea mays; settings: for Corn plant response rating: approx. 10 days
From the text: as §1, §2

[8] = system: morningglory; assay: Test A postemergence; assay type: in vivo, Ipomoea spp.
From the text: as §1, §2

[9] = system: pigweed; assay: Test A postemergence; assay type: in vivo, Amaranthus retroflexus
From the text: as §1, §2

[10] = system: wheat; assay: Test A preemergence; assay type: in vivo, Triticum aestivum; settings: for Wheat plant response rating: 0 to 100 scale, 0 no effect, 100 complete control, approx. 10 days; for Plant response rating, Wheat: 125 g ai/ha, 0 to 100 scale where 0 is no effect and 100 is complete control
From the text: as §1, §2

[11] = system: large (Lg) crabgrass; assay: Test A preemergence; assay type: in vivo, Digitaria sanguinalis; settings: for Crabgrass, Large plant response rating: approx. 10 days
From the text: as §1, §2

[12] = system: giant foxtail; assay: Test A preemergence; assay type: in vivo, Setaria faberii; settings: for Foxtail, Giant plant response rating: 0 to 100 scale, 0 no effect, 100 complete control, approx. 10 days; for Plant response rating, Foxtail, Giant: 125 g ai/ha, 0 to 100 scale where 0 is no effect and 100 is complete control
From the text: as §1, §2

[13] = system: barnyardgrass; assay: Test A preemergence; assay type: in vivo, Echinochloa crus-galli; settings: for Barnyardgrass plant response rating: approx. 10 days
From the text: as §1, §2

[14] = system: barnyardgrass; assay: Test A postemergence; assay type: in vivo, Echinochloa crus-galli
From the text: as §1, §2

[15] = system: morningglory; assay: Test A preemergence; assay type: in vivo, Ipomoea spp.; settings: for Morningglory plant response rating: 0 to 100 scale, 0 no effect, 100 complete control, approx. 10 days
From the text: as §1, §2

[16] = system: corn; assay: Test A postemergence; assay type: in vivo, Zea mays
From the text: as §1, §2

[17] = system: Heteranthera limosa; assay: Test B flooded paddy test; assay type: in vivo; settings: Flood, 250 g ai/ha; 0 to 100 scale where 0 is no effect and 100 is complete control
Experimental: (§3) Plant species in the flooded paddy test selected from rice (Oryza sativa), sedge, umbrella (small-flower umbrella sedge, Cyperus difformis), (Heteranthera limosa), and barnyardgrass (Echinochloa crus-galli) were grown to the 2-leaf stage for testing. At time of treatment, test pots were flooded to 3 cm above the soil surface, treated by application of test compounds directly to the paddy water, and then maintained at that water depth for the duration of the test. Treated plants and controls were maintained in a greenhouse for 13 to 15 days, after which time all species were compared to controls and visually evaluated. Plant response ratings, summarized in Table B, are based on a scale of 0 to 100 where 0 is no effect and 100 is complete control. A dash (-) response means no test result.

[18] = system: barnyardgrass; assay: Test B flooded paddy test; assay type: in vivo, Echinochloa crus-galli; settings: Flood, 250 g ai/ha; 0 to 100 scale where 0 is no effect and 100 is complete control
Experimental: as §3

[19] = system: sedge, umbrella; assay: Test B flooded paddy test; assay type: in vivo, Cyperus difformis; settings: Flood, 250 g ai/ha; 0 to 100 scale where 0 is no effect and 100 is complete control
Experimental: as §3

[20] = system: rice; assay: Test B flooded paddy test; assay type: in vivo, Oryza sativa; settings: Flood, 250 g ai/ha; 0 to 100 scale where 0 is no effect and 100 is complete control
Experimental: as §3

[21] = 1000 g ai/ha, 0 to 100 scale, 0 no effect, 100 complete control
[22] = 125 g ai/ha, 0 to 100 scale where 0 is no effect and 100 is complete control
[23] = 500 g ai/ha, 0 to 100 scale, 0 no effect, 100 complete control
[24] = 500 g ai/ha, 0 to 100 scale where 0 is no effect and 100 is complete control

Fc1cnc(Oc2ccccc2-n2cccn2)nc1 [Compound 14]
Plant response rating, Wheat [1, 21]: 20
Plant response rating, Velvetleaf [2, 21]: 90
Pigweed plant response rating ([3]; 1000 g ai/ha): 100
Velvetleaf plant response rating ([4]; 1000 g ai/ha): 90
Plant response rating, Crabgrass, Large [5, 21]: 30
Plant response rating, Foxtail, Giant [6, 21]: 40
Plant response rating, Corn [7, 21]: 0
Plant response rating, Morningglory [8, 21]: 70
Plant response rating, Pigweed [9, 21]: 100
Wheat plant response rating ([10]; 1000 g ai/ha): 20
Plant response rating, Crabgrass, Large [11, 21]: 90
Foxtail, Giant plant response rating ([12]; 1000 g ai/ha): 90
Plant response rating, Barnyardgrass [13, 21]: 30
Plant response rating, Barnyardgrass [14, 21]: 20
Morningglory plant response rating ([15]; 1000 g ai/ha): 20
Plant response rating, Corn [16, 21]: 20

N#Cc1cnn(-c2ccccc2Oc2ncc(Cl)cn2)c1 [Compound 33]
Plant response rating, Wheat [1, 22]: 0
Plant response rating, Wheat [1, 23]: 90
Plant response rating, Velvetleaf [2, 22]: 100
Plant response rating, Velvetleaf [2, 23]: 100
Plant response rating, Ducksalad [17]: 80
Plant response rating, Pigweed [3]: 100
Pigweed plant response rating ([3]; 500 g ai/ha): 100
Plant response rating, Velvetleaf [4]: 50
Velvetleaf plant response rating ([4]; 500 g ai/ha): 100
Plant response rating, Crabgrass, Large [5, 22]: 20
Plant response rating, Crabgrass, Large [5, 23]: 80
Plant response rating, Foxtail, Giant [6, 22]: 70
Plant response rating, Foxtail, Giant [6, 23]: 100
Plant response rating, Corn [7, 22]: 0
Corn plant response rating [7, 23]: 0
Plant response rating, Barnyardgrass [18]: 10
Plant response rating, Sedge, Umbrella [19]: 20
Plant response rating, Pigweed [9, 22]: 100
Plant response rating, Pigweed [9, 23]: 100
Plant response rating, Rice [20]: 0
Plant response rating, Wheat [10]: 0
Wheat plant response rating ([10]; 500 g ai/ha): 0
Plant response rating, Crabgrass, Large [11, 22]: 90
Crabgrass, Large plant response rating [11, 23]: 100
Plant response rating, Foxtail, Giant [12]: 90
Foxtail, Giant plant response rating ([12]; 500 g ai/ha): 100
Plant response rating, Barnyardgrass [13, 22]: 0
Barnyardgrass plant response rating [13, 23]: 70
Plant response rating, Barnyardgrass [14, 22]: 0
Plant response rating, Barnyardgrass [14, 23]: 100
Plant response rating, Corn [16, 22]: 0
Plant response rating, Corn [16, 23]: 100

COc1cccc(-n2cc(Br)cn2)c1Oc1ncc(Cl)cn1 [Compound 41]
Plant response rating, Wheat [1, 22]: 0
Plant response rating, Wheat [1, 23]: 0
Plant response rating, Velvetleaf [2, 22]: 70
Plant response rating, Velvetleaf [2, 23]: 100
Plant response rating, Pigweed [3]: 70
Pigweed plant response rating ([3]; 500 g ai/ha): 100
Plant response rating, Velvetleaf [4]: 60
Velvetleaf plant response rating ([4]; 500 g ai/ha): 70
Plant response rating, Crabgrass, Large [5, 22]: 20
Plant response rating, Crabgrass, Large [5, 23]: 70
Plant response rating, Foxtail, Giant [6, 22]: 20
Plant response rating, Foxtail, Giant [6, 23]: 80
Plant response rating, Corn [7, 22]: 0
Corn plant response rating [7, 23]: 0
Plant response rating, Morningglory [8, 22]: 20
Plant response rating, Morningglory [8, 23]: 30
Plant response rating, Pigweed [9, 22]: 50
Plant response rating, Pigweed [9, 23]: 80
Plant response rating, Wheat [10]: 0
Wheat plant response rating ([10]; 500 g ai/ha): 0
Plant response rating, Crabgrass, Large [11, 22]: 30
Crabgrass, Large plant response rating [11, 23]: 70
Plant response rating, Foxtail, Giant [12]: 10
Foxtail, Giant plant response rating ([12]; 500 g ai/ha): 80
Plant response rating, Barnyardgrass [13, 22]: 10
Barnyardgrass plant response rating [13, 23]: 50
Plant response rating, Barnyardgrass [14, 22]: 10
Plant response rating, Barnyardgrass [14, 23]: 50
Plant response rating, Morningglory [15, 22]: 0
Morningglory plant response rating ([15]; 500 g ai/ha): 0
Plant response rating, Corn [16, 22]: 0
Plant response rating, Corn [16, 23]: 20

N#Cc1cnn(-c2ccccc2Oc2ncc(Cl)cn2)n1 [Compound 55]
Plant response rating, Wheat [1, 21]: 0
Plant response rating, Velvetleaf [2, 21]: 100
Pigweed plant response rating ([3]; 1000 g ai/ha): 90
Velvetleaf plant response rating ([4]; 1000 g ai/ha): 100
Plant response rating, Crabgrass, Large [5, 21]: 40
Plant response rating, Foxtail, Giant [6, 21]: 60
Plant response rating, Corn [7, 21]: 0
Plant response rating, Morningglory [8, 21]: 80
Plant response rating, Pigweed [9, 21]: 90
Wheat plant response rating ([10]; 1000 g ai/ha): 0
Plant response rating, Crabgrass, Large [11, 21]: 90
Foxtail, Giant plant response rating ([12]; 1000 g ai/ha): 90
Plant response rating, Barnyardgrass [13, 21]: 40
Plant response rating, Barnyardgrass [14, 21]: 10
Morningglory plant response rating ([15]; 1000 g ai/ha): 0
Plant response rating, Corn [16, 21]: 20

N#Cc1cnn(-c2ccccc2Oc2ncc(Br)cn2)n1 [Compound 56]
Plant response rating, Wheat [1, 21]: 0
Plant response rating, Velvetleaf [2, 21]: 100
Pigweed plant response rating ([3]; 1000 g ai/ha): 100
Velvetleaf plant response rating ([4]; 1000 g ai/ha): 90
Plant response rating, Crabgrass, Large [5, 21]: 40
Plant response rating, Foxtail, Giant [6, 21]: 30
Plant response rating, Corn [7, 21]: 20
Plant response rating, Morningglory [8, 21]: 0
Plant response rating, Pigweed [9, 21]: 90
Wheat plant response rating ([10]; 1000 g ai/ha): 0
Plant response rating, Crabgrass, Large [11, 21]: 80
Foxtail, Giant plant response rating ([12]; 1000 g ai/ha): 30
Plant response rating, Barnyardgrass [13, 21]: 0
Plant response rating, Barnyardgrass [14, 21]: 30
Morningglory plant response rating ([15]; 1000 g ai/ha): 0
Plant response rating, Corn [16, 21]: 20

FC(F)(F)Oc1cccc(Oc2ncc(Cl)cn2)c1-n1cc(Br)cn1 [Compound 78]
Plant response rating, Wheat [1, 24]: 20
Plant response rating, Velvetleaf [2, 24]: 100
Pigweed plant response rating ([3]; 500 g ai/ha): 100
Velvetleaf plant response rating ([4]; 500 g ai/ha): 50
Plant response rating, Crabgrass, Large [5, 23]: 100
Plant response rating, Foxtail, Giant [6, 24]: 90
Corn plant response rating [7, 23]: 10
Plant response rating, Morningglory [8, 24]: 90
Plant response rating, Pigweed [9, 24]: 100
Wheat plant response rating ([10]; 500 g ai/ha): 10
Crabgrass, Large plant response rating [11, 23]: 100
Foxtail, Giant plant response rating ([12]; 500 g ai/ha): 100
Barnyardgrass plant response rating [13, 23]: 80
Plant response rating, Barnyardgrass [14, 23]: 50
Morningglory plant response rating ([15]; 500 g ai/ha): 20
Plant response rating, Corn [16, 23]: 30

Clc1cnc(Oc2ccccc2-n2cc(Cl)nn2)nc1 [Compound 224]
Plant response rating, Wheat [1, 21]: 60
Plant response rating, Velvetleaf [2, 21]: 100
Pigweed plant response rating ([3]; 1000 g ai/ha): 100
Velvetleaf plant response rating ([4]; 1000 g ai/ha): 100
Plant response rating, Crabgrass, Large [5, 21]: 80
Plant response rating, Foxtail, Giant [6, 21]: 90
Corn plant response rating [7, 21]: 40
Plant response rating, Morningglory [8, 21]: 100
Plant response rating, Pigweed [9, 21]: 100
Wheat plant response rating ([10]; 1000 g ai/ha): 60
Crabgrass, Large plant response rating [11, 21]: 100
Foxtail, Giant plant response rating ([12]; 1000 g ai/ha): 100
Barnyardgrass plant response rating [13, 21]: 100
Plant response rating, Barnyardgrass [14, 21]: 90
Morningglory plant response rating ([15]; 1000 g ai/ha): 90
Plant response rating, Corn [16, 21]: 50
